Test results from patent publication EP4570805A1, “TRICYCLIC COMPOUNDS AND MEDICAL USE THEREOF” (Chia Tai Tianqing Pharmaceutical Group Co., Ltd., priority 2022, dated 2024).

How the values were obtained:
Capan-1 cells = assay: Inhibitory activity for Capan-1 cell proliferation (CCK-8); type: cell-based; conditions: Homo sapiens, CAPAN-1, 120 h, 5 days incubation
Summary of the method: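 Capan-1 cells were seeded at 1.5 × 10^4 cells/mL and exposed to compound for 5 days. CCK-8 was added for 4 h, with absorbance read at 450 nm. IC50 came from a four-parameter dose-response fit.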

[1] = In vitro liver microsomal stability, human; type: in vitro ADME; conditions: human liver microsome 0.5 mg/mL, 37 °C
Excerpt: Table 2. Results for in vitro liver microsomal metabolic stability

[2] = In vivo pharmacokinetics in mice; conditions: mouse, plasma, po, ICR mice, IG, 10 mg/kg
Experimental: ICR mice weighing 20 g to 24 g were randomized into groups with 9 mice in each group after 3 to 5 days of acclimatization, and intragastric administration of the experimental compounds was performed at a dose of 10 mg/kg.
The test animals (ICR mice) were fasted for 12 h before administration and fed 4 h after administration, and were given free access to water before, after, and during the experiment.
After intragastric administration, about 0.1 mL of blood was collected via the orbital sinus at 0.25 h (15 min), 0.5 h (30 min), 1 h, 2 h, 4 h, 6 h, 8 h, and 10 h (each mouse was subjected to blood collection at 3 to 4 time points, with 3 mice per time point). Following anticoagulation with EDTA-K2, the blood samples were transferred to a centrifuge within 30 min and then centrifuged at 4000 rpm for 10 min at 4 °C to separate the plasma. All the plasma samples were collected and immediately stored at -20 °C for testing.
20 µL of the plasma sample to be tested and the standard curve sample were pipetted, and 400 µL of acetonitrile solution containing an internal standard (20 ng/mL) was added. The mixture was shaken and mixed well for 10 min, and centrifuged at 13000 rpm for 10 min. 50 µL of the supernatant was taken and diluted with 100 µL of ultrapure water. After being mixed well, 0.5 µL of the resulting sample was subjected to LC/MS/MS, and a chromatogram was recorded.
Oral exposure of the compounds of the present disclosure was evaluated by in vivo pharmacokinetic experiments in mice.

[3] = microsomes, 1 h
Experimental: Liver microsome incubation samples (species: human, monkey, rat, and mouse) were prepared by mixing a PBS buffer (pH 7.4), a liver microsome solution (0.5 mg/mL), a test compound, and an NADPH + MgCl2 solution and incubated at 37 °C and 300 rpm for 1 h. Zero-hour samples were prepared by mixing a PBS buffer (pH 7.4), a liver microsome solution (0.5 mg/mL), and a test compound. An acetonitrile solution containing an internal standard was added to the samples, and the supernatants were prepared by protein precipitation, diluted, and then assayed by LC/MS/MS.

AsPc-1 cells = assay: Inhibitory activity for AsPc-1 cell proliferation (CCK-8); type: cell-based, human; conditions: Homo sapiens, ASPC1, 72 h incubation
Experimental: AsPc-1 cells in a well-growing state were collected into a centrifuge tube, adjusted to a cell density of 3 × 10^4 cells/mL, and inoculated onto a 96-well plate (100 µL/well). The compounds were added using a nanoliter pipettor such that the final concentrations of the compounds were 5000 nM-0.31 nM (the addition was performed in duplicate). Meanwhile, a control was set. After 72 h of incubation in the cell incubator, the assay reagent CCK-8 (manufacturer: Dojindo Laboratories; 10 µL/well) was added. After 3 h of incubation in the cell incubator, the absorbance was measured at 450 nm on a PerkinElmer Envision microplate reader. A four-parameter analysis was performed, a dose-response curve was fitted, and IC50 was calculated.

Compound	IC50 (Capan-1 cells) [nM]	The remaining amount % (T = 60 min) (0.5 mg/mL) Human liver microsome [1] [%]	Cmax [2] [ng/mL]	Tmax [2] [h]	AUC(0-t) at 6 h ([2]; gavage parameters were fitted to 6 h) [ng·h/mL]	The remaining amount % (T = 60 min) (0.5 mg/mL) Mouse liver microsome [3] [%]	IC50 (AsPc-1 cells) [nM]
CC(c1cccnc1N)N1c2nc(OC[C@@H]3CCCN3C)nc3c(F)c(-c4cc(N)cc(Cl)c4C(F)(F)F)nc(c23)OC[C@@H]1C (single isomer, unassigned) [Example 162]	< 100	>40	38.4	1	156		
C#Cc1c(F)ccc2cc(O)cc(-c3nc4c5c(nc(O[C@@H](C)[C@@H]6CCCN6C)nc5c3F)N(C(C)c3cccnc3N)[C@@H](C)CO4)c12 (single isomer, unassigned) [Example 107]	< 100	>40					
C#Cc1c(F)ccc2cc(O)cc(-c3nc4c5c(nc(OC[C@H](C)N(C)C)nc5c3F)N(C(C)c3cccnc3N)[C@@H](C)CO4)c12 (single isomer, unassigned) [Example 111]	< 100					>60	
C#Cc1c(F)ccc2cc(O)cc(-c3nc4c5c(nc(OCC67CCCN6CCC7)nc5c3F)N(C(C)c3cccnc3N)[C@@H](C)CO4)c12 (single isomer, unassigned) [Example 97]	< 100	>40					≤ 100
